Where two headings read alike, the source gives them in different places.
Experiments:
[1] = system: NF-κB; assay: NF-κB-bla THP-1 β-lactamase reporter assay; assay type: cell-based, human; details: for maximum NF-κB inhibition: this protocol
[2] = system: CD1 male mice, carrageenan-λ induced pleurisy; assay: carrageenan-λ induced lung (pleural cavity) inflammation in mice; assay type: in vivo, mouse; details: for number of neutrophils relative to untreated carrageenan-λ control (100%): 4 h after carrageenan
[3] = system: MG-63 cells; assay: reversal of glucocorticoid effects in MG-63 osteosarcoma cells; assay type: cell-based, human
[4] = system: female SJL mice, EAE; assay: experimental autoimmune encephalomyelitis (EAE), PLP-induced, Example 23; assay type: in vivo, mouse; details: for course of EAE compared to vehicle-treated mice: 0.1 mg q.d. po from clinical onset
[5] = Homo sapiens, THP-1, read-out: IC50, this protocol
[6] = anti-inflammatory activity in this protocol, read-out: IC50
[7] = Homo sapiens, THP-1, read-out: IC50 for inhibition of NF-κB activation, after LPS stimulation, 50% of the maximum inhibition the compound can induce, averages of 2-4 assays
[8] = after LPS stimulation, 50% of the maximum inhibition the compound can induce, averages of 2-4 assays, read-out: IC50 for inhibition of NF-κB activation

Work on C[C@]12CC[C@H]3[C@@H](CCC4C[C@H](O)CC[C@@]43C)[C@@H]1C[C@@H](O)[C@@H]2O (stereo partly drawn) [3α,16α,17β-trihydroxyandrostane] yielded an IC50 [1, 5] of 6.9 µM.

For C[C@]12CC[C@H]3[C@@H](CCC4C[C@H](O)CC[C@@]43C)[C@@H]1C[C@H](O)[C@@H]2O (stereo partly drawn) [3α,16β,17β-trihydroxyandrostane], the IC50 [1, 5] was 19 µM, the “number of neutrophils relative to untreated carrageenan-λ control (100%)” value ([2]; 0.001 mg s.c. 24 h and 1 h before carrageenan-λ) was 95% and the “number of neutrophils relative to untreated carrageenan-λ control (100%)” value ([2]; 0.01 mg s.c. 24 h and 1 h before carrageenan-λ) was 50%. For the same molecule, the “number of neutrophils in the pleura” value ([2]; 0.1 mg and 0.01 mg doses s.c.) was “significant reduction” and the “number of neutrophils relative to untreated carrageenan-λ control (100%)” value ([2]; 0.1 mg s.c. 24 h and 1 h before carrageenan-λ) was 42%.

In the case of C[C@]12CC[C@H]3[C@@H](CCC4=C[C@H](O)CC[C@@]43C)[C@@H]1CC[C@@H]2O [3α,17β-dihydroxyandrost-4-ene], the “dexamethasone induced 11β-HSD mRNA” value ([3]; similar protocols) is reported as “decrease” and the “reversal of dexamethasone-induced suppression of IL-8 and IL-6” value ([3]; similar protocols) is reported as “statistically significant reversal”.

With CC12CCC(O)(C(F)(F)C(F)(F)F)C=C1CCC1C2CCC2(C)C(O)CCC12 (stereo not drawn) [3α-pentafluoroethylandrost-4-ene-3β,17β-diol] the IC50 [1, 6] was 0.0031 µM.

In the case of C[C@]12CC[C@H]3[C@@H](CC=C4C[C@](O)(C(F)(F)C(F)(F)F)CC[C@@]43C)[C@@H]1CC[C@@H]2O [3α-pentafluoroethylandrost-5-ene-3β,17β-diol], the IC50 [1, 6] is reported as 0.017 µM and the “maximum NF-κB inhibition” value [1] is reported as 50%.

With C[C@]12CC[C@H]3[C@@H](CC=C4C[C@](O)(C(F)(F)F)CC[C@@]43C)[C@@H]1CC[C@@H]2O [3α-trifluoromethylandrost-5-ene-3β,17β-diol] the “course of EAE compared to vehicle-treated mice” value [4] was “significantly improved course of EAE”, the “mean cumulative score, treatment period (day 1 to 30)” value ([4]; 0.1 mg q.d. po from clinical onset to day 30, vehicle 24.8±7.8) was 11.2±4.8 and the “mean cumulative score, follow-up period (day 31 to day 54)” value ([4]; after end of treatment, vehicle 22.7±15.8) was 10.8±10.3.

For C[C@]12CC[C@H]3[C@@H]([C@H](O)C=C4C[C@@H](O)CC[C@@]43C)[C@@H]1CC[C@@H]2O [3β,7α,17β-trihydroxyandrost-5-ene], the IC50 [1, 7] was > 10 µM.

For C[C@]12C[C@H](O)[C@H]3[C@@H]([C@@H](O)C=C4C[C@@H](O)CC[C@@]43C)[C@@H]1CC[C@@H]2O [3β,7β,11β,17β-tetrahydroxyandrost-5-ene], the IC50 [1, 7] was > 10 µM.

For C[C@]12CC[C@H](O)CC1=C[C@H](O)[C@@H]1[C@@H]2CC[C@@]2(C)[C@H]1CC[C@]2(C)O [3β,7β,17β-trihydroxy-17α-methylandrost-5-ene], the “osteoprotegerin levels in the presence of 30 nM dexamethasone” value (from here on “osteoprotegerin levels in the presence”) ([3]; 10 nM compound) was “normal osteoprotegerin levels”.

In the case of CC12CCC(O)CC1=CC(O)C1C2CCC2(C)C1CCC2(O)C(F)(F)F (stereo not drawn) [3β,7β,17β-trihydroxy-17α-trifluoromethylandrost-5-ene], the IC50 [1, 8] is reported as > 10 µM and the “osteoprotegerin levels in the presence” value ([3]; 1 μM compound) is reported as “normal or basal osteoprotegerin levels”.

In the case of C[C@]12CC[C@H](O)CC1=CC[C@@H]1[C@@H]2[C@H](O)C[C@]2(C)C(=O)CC[C@@H]12 [3β,11α-dihydroxy-17-oxoandrost-5-ene], the IC50 [1, 7] is reported as > 10 µM.

C[C@]12CC[C@H]3[C@@H](CC=C4C[C@@H](O)CC[C@@]43C)[C@@H]1CC[C@H]2O [3β,17α-dihydroxyandrost-5-ene] was tested, and the IC50 [1, 5] was > 10 µM.

In the case of C[C@@]1(O)CC[C@@]2(C)[C@@H](CC[C@@H]3[C@@H]2CC[C@@]2(C)[C@H]3CC[C@]2(C)O)C1 [3β,17α-dimethylandrostane-3α,17β-diol], the IC50 ([1]; compounds increased NF-κB activity, read-out: IC50 of compounds that increased NF-κB activity) is reported as 0.04 µM.

In the case of CC12CCC(O)CC1=CC(=O)C1C2CCC2(C)C1CCC2(C)O (stereo not drawn) [3β,17β-dihydroxy-7-oxo-17α-methylandrost-5-ene], the IC50 [1, 8] is reported as > 10 µM and the “osteoprotegerin levels in the presence” value ([3]; 100 nM compound) is reported as “increased osteoprotegerin levels”.

In the case of CC(=O)O[C@H]1CC[C@@]2(C)C(=C[C@H](O)[C@H]3[C@@H]4CC[C@H](O)[C@@]4(C)CC(=O)[C@@H]32)C1 [3β-acetoxy-7β,17β-dihydroxy-11-oxoandrost-5-ene], the IC50 [1, 5] is reported as 1 µM and the “maximum NF-κB inhibition” value [1] is reported as 65%.

For C[C@]12CC[C@H]3[C@@H](CCC4C[C@@H](C(=O)CN)CC[C@@]43C)[C@@H]1CC[C@@H]2O (stereo partly drawn) [3β-glycylandrostane-17β-ol], the IC50 ([1]; Homo sapiens, THP-1, read-out: IC50, anti-inflammatory activity in this protocol) was 0.001 µM.

In the case of C[C@]12CC[C@H](O)CC1CC(=O)[C@@H]1[C@@H]2CC[C@]2(C)C(=O)CC[C@@H]12 (stereo partly drawn) [3β-hydroxyandrostane-7,17-dione], the IC50 [1, 5] is reported as > 10 µM.

C[C@]12CC[C@H](O)C[C@@H]1CC[C@@H]1[C@@H]2CC[C@]2(C)[C@@H](O)C(=NO)C[C@@H]12 [5α-androstane-3β,17β-diol-16-oxime] was tested, and the “course of EAE compared to vehicle-treated mice” value [4] was “very similar to that observed in the vehicle-treated mice”.

CC(=O)O[C@@H]1C[C@H]2[C@@H]3[C@@H](O)C=C4C[C@@H](O)CC[C@]4(C)[C@H]3CC[C@]2(C)[C@H]1O [16α-acetoxy-3β,7β,17β-trihydroxyandrost-5-ene] was tested, and the IC50 ([1]; Homo sapiens, THP-1, after LPS stimulation, 50% of the maximum inhibition the compound can induce, averages of 2-4 assays, read-out: IC50 for inhibition of NF-κB activation) was > 10 µM.

Source: US20080153792A1, “Drug Identification and Treatment Method” (priority 2006, published 2008)
